From US20250019369A1, “N-(4-aminocyclohexyl)pyrimidine-4-carboxamide derivatives as CD38 inhibitors” (Cerevance, Inc., priority 2021, published 2025)

Tests used:
Recombinant human CD38 = Recombinant human CD38 (Homo sapiens (Human), UniProt P28907); assay: Human CD38 hydrolase assay (fluorescence, ε-NAD substrate); type: biochemical; settings: recombinant human CD38 0.8 nM, 4 μM ε-NAD, 30 min preincubation at 25° C., pH 7.4
Experimental: (§1) The ability of test compounds to inhibit human CD38 hydrolase activity was measured in a fluorescence-based assay using non-physiological NAD^+ substrate analogue 1,N^6-etheno NAD^+ (ε-NAD). Recombinant human CD38 (0.8 nM) was preincubated with test compounds in 384-well black microplates for 30 min at 25° C. in PBS (—Ca^2+/Mg^2+) containing 0.005% BSA (pH 7.4). CD38 hydrolase activity was initiated by addition of 4 μM ε-NAD, which yields the fluorescent product 1,N^6-etheno ADP-ribose. Formation of fluorescent product was followed using ClarioStar Plus (BMG) microplate reader by reading fluorescence (excitation λ=300 nm; emission λ=410 nm) at two time points, one immediately after substrate addition (t=0) and one at 10 min (t=10).
(§2) Data was analysed by subtracting the values detected at t=0 from t=10 to correct for variation in baseline fluorescence. Fluorescence values were converted to percent inhibition using the average of high signal (CD38 and ε-NAD) and low signal (CD38 and ε-NAD in the presence of a tool CD38 inhibitor) control wells. IC50 values were determined from a 10-point, half log concentration response curve with a four-parameter logistic equation.

Recombinant mouse CD38 = Recombinant mouse CD38 (Mus musculus (Mouse), UniProt P56528); assay: Mouse CD38 hydrolase assay (fluorescence, ε-NAD substrate); type: biochemical; settings: recombinant mouse CD38 0.4 nM, 12 μM ε-NAD, 30 min preincubation at 25° C., pH 7.4
Recombinant mouse CD38, sequence (P56528 whole entry): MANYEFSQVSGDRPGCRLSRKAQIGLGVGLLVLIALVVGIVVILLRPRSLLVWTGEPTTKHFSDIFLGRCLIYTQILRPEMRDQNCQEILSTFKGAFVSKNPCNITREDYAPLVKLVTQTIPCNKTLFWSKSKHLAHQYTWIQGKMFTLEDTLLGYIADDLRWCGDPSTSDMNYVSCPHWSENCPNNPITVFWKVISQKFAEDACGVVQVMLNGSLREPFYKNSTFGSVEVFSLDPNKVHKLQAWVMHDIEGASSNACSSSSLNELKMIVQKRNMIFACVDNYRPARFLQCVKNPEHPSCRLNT
Experimental: as §1, with “inhibit mouse” for “inhibit human”, “Recombinant mouse” for “Recombinant human”, “CD38 (0.4” for “CD38 (0.8”, “of 12” for “of 4”, “at 6” for “at 10”, “min (t=6).” for “min (t=10).”
as §2, with “t=6” for “t=10”, “fluorescence, and fluorescence” for “fluorescence. Fluorescence”

Recombinant human CD38, sequence (P28907 whole entry): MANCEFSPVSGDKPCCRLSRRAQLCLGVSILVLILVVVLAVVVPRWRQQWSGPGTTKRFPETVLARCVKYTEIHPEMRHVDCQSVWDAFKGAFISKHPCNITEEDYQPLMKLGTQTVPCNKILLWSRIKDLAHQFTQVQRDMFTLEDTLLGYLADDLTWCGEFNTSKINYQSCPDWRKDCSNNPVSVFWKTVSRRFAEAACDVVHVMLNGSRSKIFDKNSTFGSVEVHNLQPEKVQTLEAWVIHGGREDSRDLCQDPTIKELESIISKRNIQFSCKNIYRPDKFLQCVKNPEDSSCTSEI

SMILES | IC50 (Recombinant human CD38) [nM] | IC50 (Recombinant mouse CD38) [nM]
Cc1cc(C(=O)N[C@H]2CC[C@H](NCC(F)F)CC2)nc(-n2ccnc2)n1 [Example 2, N-((1r,4r)-4-((2,2-difluoroethyl)amino)cyclohexyl)-2-(1H-imidazol-1-yl)-6-methyl-pyrimidine-4-carboxamide] | ≤ 40 | ≤ 40
Cc1cc(C(=O)N[C@H]2CC[C@H](N3CCC(F)(F)C3)CC2)nc(-n2ccnc2)n1 [Example 10, N-((1r,4r)-4-(3,3-difluoropyrrolidin-1-yl)cyclohexyl)-2-(1H-imidazol-1-yl)-6-methyl-pyrimidine-4-carboxamide] | ≤ 40 | ≤ 40
Cc1cc(C(=O)N[C@H]2CC[C@H](NC(C)(C)C(F)(F)F)CC2)nc(-n2ccnc2)n1 [Example 21, 2-(1H-imidazol-1-yl)-6-methyl-N-((1r,4r)-4-((1,1,1-trifluoro-2-methylpropan-2-yl)amino)cyclohexyl)pyrimidine-4-carboxamide] | ≤ 100 | ≤ 40

Results, then the molecule that gave them:

IC50 (Recombinant human CD38) [nM] | IC50 (Recombinant mouse CD38) [nM] | SMILES
≤ 40 | ≤ 40 | Cc1cc(C(=O)N[C@H]2CC[C@H](NCC(F)(F)F)CC2)nc(-n2ccnc2)n1 [Example 1, 2-(1H-imidazol-1-yl)-6-methyl-N-((1r,4r)-4-((2,2,2-trifluoroethyl)amino)cyclohexyl)pyrimidine-4-carboxamide]
≤ 40 | ≤ 40 | O=C(N[C@H]1CC[C@H](NCC(F)F)CC1)c1cc(C2CC2)nc(-n2ccnc2)n1 [Example 3, 6-cyclopropyl-N-((1r,4r)-4-((2,2-difluoroethyl)amino)cyclohexyl)-2-(1H-imidazol-1-yl)pyrimidine-4-carboxamide]
